Data set [1] deals with influenza A/New York/469/2004-like flu (H3N2) virus. Briefly: microbe, parasite or virus in culture. The conditions noted are these: H3N2, MDCK, read-out: EC50 (μM), H3N2.
For data set [2] the test system is unchanged. Description: in vitro. The following applies: dog.
Another data set is described as follows: in vitro. The following applies: dog.
Setting [3] is: CC50 (μM), Table 4 (H3N2 series), MDCK cells.

With `O=c1cc(-c2ccccc2)oc2cc(O)c(O)c(O)c12` [Baicalein, reference compound], the concentration for a half-maximal effect (EC50) in data set [1] was found to be 92.3 µM. Moreover, the selectivity ratio at 24 h in data set [2] was more than 3.3. The molecule further registered a CC50 in the data set “in vitro” (setting [3]) of more than 300 µM.

In turn, `COc1cc2oc(-c3ccccc3Br)cc(=O)c2c(O)c1OC` [Compound 4a, 2-(2-Bromophenyl)-5-hydroxy-6,7-dimethoxy-4H-chromen-4-one] yielded a melting point of 221 to 222 °C. In data set [1], the EC50 was 133 µM. The selectivity ratio at 24 h in data set [2] is 1.5. In “in vitro” (setting [3]), the CC50 was 200 µM.

In turn, `COc1cc2oc(-c3ccc(Br)cc3)cc(=O)c2c(O)c1OC` [Compound 4c, 2-(4-Bromophenyl)-5-hydroxy-6,7-dimethoxy-4H-chromen-4-one] gave a melting point of 206 to 208 °C. Also, in “in vitro” (setting [3]), the CC50 is more than 300 µM.

Consider `O=c1cc(-c2ccccc2Br)oc2cc(O)c(O)c(O)c12` [Compound 6a, 2-(2-Bromophenyl)-5,6,7-trihydroxy-4H-chromen-4-one], for which the melting point fell in the range of 249 to 251 °C. In data set [1], the EC50 amounted to 71.8 µM. For the same molecule, the selectivity ratio at 24 h in data set [2] was more than 4.2. The molecule further came in with a CC50 in the data set “in vitro” (setting [3]) of more than 300 µM.

Regarding `COc1c(O)cc2oc(-c3ccccc3Br)cc(=O)c2c1O` [Compound 5a, 2-(2-Bromophenyl)-5,7-dihydroxy-6-methoxy-4H-chromen-4-one], the EC50 in data set [1] was found to be 17.3 µM. Besides, the selectivity ratio at 24 h in data set [2] was more than 17.3. The CC50 in the data set “in vitro” (setting [3]) is more than 300 µM.

As for `O=c1cc(-c2ccc(Br)cc2)oc2cc(O)c(O)c(O)c12` [Compound 6c, 2-(4-Bromophenyl)-5,6,7-trihydroxy-4H-chromen-4-one], in data set [1], the EC50 turned out to be 35.9 µM. Besides, the selectivity ratio at 24 h in data set [2] is more than 8.4. Also, the CC50 in the data set “in vitro” (setting [3]) was more than 300 µM.

The molecule `COc1c(O)cc2oc(-c3ccc(Br)cc3)cc(=O)c2c1O` [Compound 5c, 2-(4-Bromophenyl)-5,7-dihydroxy-6-methoxy-4H-chromen-4-one] showed a melting point of 275 to 276 °C. Further, the half-maximal effective concentration (EC50) in data set [1] was found to be 34.5 µM. Besides, the selectivity ratio at 24 h in data set [2] was more than 8.7. The molecule further displayed a CC50 in the data set “in vitro” (setting [3]) of more than 300 µM.

For `O=C(O)[C@H]1O[C@@H](Oc2cc3oc(-c4ccccc4)cc(=O)c3c(O)c2O)[C@H](O)[C@@H](O)[C@@H]1O` [Baicalin, reference compound], the EC50 in data set [1] was 104 µM. In data set [2], the selectivity ratio at 24 h was more than 2.9. Besides, the CC50 in the data set “in vitro” (setting [3]) was more than 300 µM.

The molecule `COc1cc2oc(-c3cccc(Br)c3)cc(=O)c2c(O)c1OC` [Compound 4b, 2-(3-Bromophenyl)-5-hydroxy-6,7-dimethoxy-4H-chromen-4-one] gave a melting point of 188 to 189 °C. Moreover, in data set [1], the EC50 was found to be 133 µM. Also, the selectivity ratio at 24 h in data set [2] worked out at 0.5. Also, the CC50 in “in vitro” (setting [3]) was 66.5 µM.

`COc1cc2oc(-c3ccc(Br)cc3)cc(=O)c2c(OC)c1OC` [Compound 2m, 2-(4-Bromophenyl)-5,6,7-trimethoxy-4H-chromen-4-one]: the melting point was in the range of 165 to 166 °C. Also, the CC50 in the data set “in vitro” (setting [3]) was more than 300 µM.

The molecule `COc1cc2oc(-c3ccccc3Br)cc(=O)c2c(OC)c1OC` [Compound 2k, 2-(2-Bromophenyl)-5,6,7-trimethoxy-4H-chromen-4-one] showed a melting point of 122 to 123 °C. The EC50 in data set [1] turned out to be 64.1 µM. Moreover, the selectivity ratio at 24 h in data set [2] was 2. In the data set “in vitro” (setting [3]), this molecule registered a CC50 of 128 µM.

Take `COc1c(O)cc2oc(-c3cccc(Br)c3)cc(=O)c2c1O` [Compound 5b, 2-(3-Bromophenyl)-5,7-dihydroxy-6-methoxy-4H-chromen-4-one]: the EC50 in data set [1] was found to be 17.3 µM. Moreover, the selectivity ratio at 24 h in data set [2] is more than 17.3. Moreover, the CC50 in the data set “in vitro” (setting [3]) was more than 300 µM.

As for `COc1cc2oc(-c3cccc(Br)c3)cc(=O)c2c(OC)c1OC` [Compound 2l, 2-(3-Bromophenyl)-5,6,7-trimethoxy-4H-chromen-4-one], the melting point lay in the range of 190 to 191 °C. Also, the EC50 in data set [1] was 128 µM. In addition, the selectivity ratio at 24 h in data set [2] was found to be 0.5. For the same molecule, the CC50 in “in vitro” (setting [3]) came out at 64.1 µM.

`NC(=O)c1ncn([C@@H]2O[C@H](CO)[C@@H](O)[C@H]2O)n1` [Ribavirin, reference compound]: in data set [1], the EC50 was 25.6 µM. Moreover, the selectivity ratio at 24 h in data set [2] was more than 11.7. In “in vitro” (setting [3]), the CC50 is more than 300 µM.

In turn, `O=c1cc(-c2cccc(Br)c2)oc2cc(O)c(O)c(O)c12` [Compound 6b, 2-(3-Bromophenyl)-5,6,7-trihydroxy-4H-chromen-4-one] came in with a melting point of 255 to 256 °C. For the same molecule, in data set [1], the EC50 worked out at 35.9 µM. For the same molecule, the selectivity ratio at 24 h in data set [2] was more than 8.4. This molecule gave a CC50 in “in vitro” (setting [3]) of more than 300 µM.

Turning to `CCOC(=O)C1=C[C@@H](OC(CC)CC)[C@H](NC(C)=O)[C@@H](N)C1` [oseltamivir, reference compound], the CC50 in “in vitro” worked out at 320 µM.

As a reminder, the EC50 is the concentration that produces a half-maximal response. The term melting point denotes the temperature of the solid-liquid transition.

For the origin of these results see patent US20150329515A1, “COMPOSITION AND METHOD FOR TREATING OR PREVENTING INFLUENZA VIRUS INFECTION” (National Defense Medical Center, priority 2014, published 2015).
